Measured values as given in patent US20230227838A1, “ENHANCED CELL SURVIVAL AGAINST BIOTIC AND ABIOTIC STRESSES THROUGH SALICYLICK ACID-INDUCED NPR1 CONDENSATES” (priority 2020, published 2023).

What was measured:
CUL3 = test: Pull-down of Myc-CUL3 with GST-fused NPR1 or variants co-expressed in E. coli; type: binding, Arabidopsis thaliana
Excerpt: Plasmid construction and E. coli-based ubiquitination: The coding sequences for all Arabidopsis genes were amplified from cDNA. Point mutations of AtNPR1 (AT1G64280) were generated using the QuikChange II site-directed mutagenesis kit (Agilent). Overlap PCR was used to generate the deletion/truncation mutations of AtCUL3A (AT1G26830) and AtNPR1. The WT and mutated coding sequences for all genes and gene fusions were sub-cloned into the pDONR207 gateway donor vector and confirmed by sequencing. The obtained entry vectors were recombined into either plant or E. coli destination vectors without or with an N- or C-terminal tag. For in planta expression, genes were recombined into the plant binary vectors pK7FWG2, pSITE-4NB and pLN462 to generate C-terminal eGFP, mCherry and HA fusions, respectively; into pK7WGF2, pEG201, pEG202, pEG203 and pEG204 to generate N-terminal eGFP, HA, FLAG, Myc and V5 fusions, respectively. […] For bimolecular fluorescence complementation (BiFC), entry vectors carrying the coding sequences of genes and their mutant variants were recombined into the pSITE-cEYFP-N1 binary vector for C-terminal fusion with the cYFP half (YC), or into the pSITE-nEYFP-C1 for N-terminal fusion with the nYFP half (YN). […]

[1] = test system: cell death induced by heat shock, oxidative and DNA damage stresses; settings: 1 mM SA 24 hr before stress; WT, not in npr1-2
Protocol: (§1) Chemical treatment, pathogen infection and cell death assays. For soil-grown Arabidopsis plants, SA treatment was carried out with spray at indicated concentrations. For seedlings grown vertically on solid 1/2 MS medium for 10-12 days, SA […] treatment (1 mM), with or without the proteasome inhibitor MG132 (50 μM), and protein synthesis […] inhibitor cycloheximide (100 μM) was done by submerging them in solutions for indicated periods. Unless otherwise stated, in N. benthamiana, SA treatment was done by infiltrating leaves 24 hr after agroinfiltration. SA pre-treatment of mature Arabidopsis was done by spray 24 hr before bacterial infection or cell death induction. For bacterial infections, Pseudomonas syringae pv. maculicola ES4326 carrying AvrRpt2 or AvrRpm1 effectors, and Pf Pf0-1 carrying functional AvrRps4 or non-functional AvrRps4KRVY-AAAA effectors were grown for 2 days on solid King's B medium supplemented with appropriate antibiotics. […] Bacteria were pressure infiltrated into mature leaves of three-week-old Arabidopsis plants and cell death or bacterial growth were assessed at indicated times post inoculation (hpi, hours post inoculation; dpi, days post inoculation). […]

[2] = test system: cell death triggered by in planta expression of the effector, AvrRpt2; settings: SA treatment before dexamethasone induction
Protocol: as §1

Row | Molecule | interaction with CUL3 when co-expressed in E. coli (CUL3) | cell death induced by heat shock, oxidative and DNA damage stresses [1] | cell death triggered by in planta expression of AvrRpt2 [2]
1 | NPR1: wild-type Arabidopsis thaliana NPR1 protein, positive regulator of systemic acquired resistance | could be easily observed |  | 
2 | O=C(O)c1ccccc1O [SA, salicylic acid] |  | significantly suppressed cell death | protect against cell death
